Results: patent US20220315567A1 (priority 2016, published 2022)
Where a name gives a salt, the structure may show the parent alone. Read-outs that look alike come from different tables or passages of the source.

How the values were obtained:
[1] = target: T1, human OPRM1 (μ, MOR) (Homo sapiens, UniProt P35372); test: cell-based; details: for Emax: OPRM1, read-out: β-Arrestin Emax; for EC50: PathHunter human OPRM1 Arrestin CHO-K1 cell line, read-out: β-Arrestin EC50
T1 construct: host or cells: CHO-K1
T1 sequence (P35372 whole entry): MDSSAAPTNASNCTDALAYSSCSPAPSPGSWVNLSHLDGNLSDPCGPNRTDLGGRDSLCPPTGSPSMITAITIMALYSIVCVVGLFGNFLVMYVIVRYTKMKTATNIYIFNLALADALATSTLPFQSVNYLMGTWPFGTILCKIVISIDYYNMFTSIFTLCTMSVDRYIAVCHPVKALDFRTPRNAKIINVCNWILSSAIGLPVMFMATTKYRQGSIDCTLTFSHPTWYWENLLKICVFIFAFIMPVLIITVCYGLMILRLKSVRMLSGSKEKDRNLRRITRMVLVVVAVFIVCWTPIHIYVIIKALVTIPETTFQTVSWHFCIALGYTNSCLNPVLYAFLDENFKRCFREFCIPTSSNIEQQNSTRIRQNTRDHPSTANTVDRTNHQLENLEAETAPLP
In short: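 β-Arrestin-2 recruitment was measured in PathHunter CHO-K1 cells expressing ED-tagged human OPRM1 and EA-fused arrestin. Agonist-driven recruitment restores β-galactosidase activity by enzyme fragment complementation, read by chemiluminescence.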

[2] = target: T1, human OPRM1 (μ, MOR); test: cell-based; details: for Emax: OPRM1, read-out: cAMP Emax; for EC50: PathHunter human OPRM1 Arrestin CHO-K1 cell line, read-out: cAMP EC50
Protocol: G-protein signaling was measured via second messenger cAMP modulation. Detection of cAMP modulation was accomplished in the PathHunter human OPRM1 (μ, MOR) Arrestin CHO-K1 cell line using the Dynamic2 cAMP Kit from Cisbio.

[3] = target: T1, human OPRM1 (μ, MOR); format: cell-based; details: for ΔRA of compound: relative activity from EC50 and Emax of β-arrestin vs cAMP, lower RA = more G-protein biased
In short: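 Activity measured in cell assays for G-protein signaling and for β-arrestin recruitment. A relative activity (RA) value was derived by comparing the two readouts, taking both EC50 and Emax into account.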

Row | Compound | melting point | Emax [1] | EC50 [1] | Emax [2] | EC50 [2] | Bias Factor (ΔRA of compound relative to ΔRA of DAMGO) × 10 [3] | ΔRA of compound [3]
1 | CN(C)C(CNC(=O)NC1CCc2ccccc2C1)c1ccccc1 (stereo not drawn) (as salt: hydrochloride) [Compound 19a, 1-(2-(Dimethylamino)-2-phenylethyl)-3-(1,2,3,4-tetrahydronaphthalen-2-yl)urea hydrochloride] | 160 to 161 °C | – | – | – | – | – | –
2 | CN(C)C(CNC(=O)N1Cc2ccc(F)cc2C1)c1ccccc1 (stereo not drawn) (as salt: hydrochloride) [Compound 20a, N-(2-(Dimethylamino)-2-phenylethyl)-5-fluoroisoindoline-2-carboxamide hydrochloride] | 148 to 150 °C | – | – | – | – | – | –
3 | CN(C)C(CNC(=O)N1Cc2ccc(F)cc2C1)c1ccsc1 (single isomer, unassigned) (as salt: hydrochloride) [2a-ent-(+), (+)—N-(2-(Dimethylamino)-2-(thiophen-3-yl)ethyl)-5-fluoroisoindoline-2-carboxamide hydrochloride] | 150 to 155 °C (dec.) | – | – | – | – | – | –
4 | CN(C)C(CNC(=O)N1Cc2ccc(F)cc2C1)c1ccc(O)cc1 (stereo not drawn) [Compound 21, N-(2-(Dimethylamino)-2-(4-hydroxyphenyl)ethyl)-5-fluoroisoindoline-2-carboxamide] | 180 to 185 °C (dec.) | < 1% | > 100 µM | 4.5% | > 100 µM | – | –
5 | CN(C(=O)OC(C)(C)C)C(CNC(=O)N1Cc2ccc(F)cc2C1)c1ccsc1 (stereo not drawn) [Compound 34, tert-Butyl (2-(5-fluoroisoindoline-2-carboxamido)-1-(thiophen-3-yl)ethyl)(methyl)carbamate] | 182 to 184 °C | < 1% | > 100 µM | 2.6% | > 100 µM | – | –
6 | CN(C)C(CNC(=O)N1Cc2cccc(C#N)c2C1)c1ccsc1 (stereo not drawn) [Compound 44] | 159 to 161 °C | 5.3% | > 100 µM | 51.4% | 0.162 µM | <−14.83 | <−2.96
7 | CN(C)C(CNC(=O)N1CCCc2cc(O)ccc21)c1ccsc1 (stereo not drawn) [Compound 53] | 163 °C (dec.) | 20.1% | 3.79 µM | 120% | 0.267 µM | −4.47 | −1.93
8 | CN(C)C1(CNC(=O)N2Cc3ccccc3C2)CCCCC1 [Compound 54] | 225 to 227 °C | 20.8% | 4.42 µM | 113% | 0.396 µM | −3.04 | −1.78
9 | CN(C)C1(CNC(=O)N[C@@H]2CCc3ccccc3C2)CCCCC1 [Compound 55] | 192 to 194 °C | < 1% | > 100 µM | 36.6% | 2.85 µM | <−14.83 | <−2.96
10 | CN(C)C1(CNC(=O)N[C@H]2CCc3ccccc3C2)CCCCC1 [Compound 56] | 191 to 193 °C | < 1% | > 100 µM | 43.3% | 7.74 µM | <−14.83 | <−2.96
